Laboratory results: publication PMC12621189, “Optimization of Selective and CNS Penetrant Alkyne-Based TREK Inhibitors: The Discovery and Characterization of ONO-9517601 (VU6022856) and ONO-7927846 (VU6024391)” (Journal of Medicinal Chemistry, 2025)

Assays:
THIK-1 = THIK-1 (Homo sapiens, UniProt Q9HB14); assay: K2P family selectivity, THIK-1; assay type: cell-based
[1] = Brain exposure at the MED (rat NOR); assay type: in vivo; settings: oral, 10 at 1 mg/kg, 11 at 0.3 mg/kg
DAT = DAT (Homo sapiens, UniProt Q01959); assay: Functional assay, DAT; assay type: biochemical
TASK-1 = TASK-1 (Homo sapiens, UniProt O14649); assay: K2P family selectivity, TASK-1; assay type: cell-based
TRAAK = TRAAK (Homo sapiens, UniProt Q9NYG8); assay: K2P family selectivity, TRAAK; assay type: cell-based
TASK-2 = TASK-2 (Homo sapiens, UniProt O95279); assay: K2P family selectivity, TASK-2; assay type: cell-based
human TREK-2 = target: T1, human TREK-2 (Homo sapiens, UniProt P57789); assay: hTREK-2 manual patch clamp assay; assay type: cell-based; settings: human TREK-2, manual patch clamp; read-out: TREK-2 IC50 (human, MPC)
T1 construct: expressed in transfected cells
Protocol: compounds were dissolved into the bathing solution. The effects of test compound on the currents were calculated at 0 mV using the following equations:
% inhibition = (1-post current/pre current) x 100
% inhibition vs compound concentrations were plotted in GraphPad Prism and calculated IC50. […]
hTREK-2 patch clamp assay
HEK293 cells stably expressing human TREK-2 are plated on glass coverslips, and voltage clamped in the whole-cell configuration of the patch clamp technique. Cells are voltage clamped at a holding potential of -80 mV and the stepped to 0 mV for 500 msec. The voltage is subsequently ramped from -120mV to +80 mV over a 500 msec duration. This step-ramp protocol is repeated every 10 sec. The bathing solution contained the following: 135 mM NaCl, 5 mM KCl, 2 mM CaCl2, 1 mM MgCl2, 5 mM D-Glucose, 10 mM HEPES, 10 mM sucrose (adjusted to pH 7.4 with NaOH, 300 mosmol/kg H2O). The pipette solution contained the following: 135 mM KCl, 2 mM MgCl2, 1 mM EGTA, 10 mM HEPES, 2 mM Na2ATP (adjusted to pH 7.35 with KOH, 285 mosmol/kg H2O). Test compounds are dissolved into the bathing solution. Experiments are terminated with the addition of the control compound (tert-butyl (3-((4-(benzyloxy)-2-methylphenyl)carbamoyl)-4-chlorophenyl)carbamate) so that maximal inhibition can be determined. The effects of test compound on the currents can be calculated at 0 mV using the […]

TASK-3 = TASK-3 (Homo sapiens, UniProt Q9NPC2); assay: K2P family selectivity, TASK-3; assay type: cell-based
TRESK = TRESK (Homo sapiens, UniProt Q7Z418); assay: K2P family selectivity, TRESK; assay type: cell-based
dopamine transporter DAT = target: T2, dopamine transporter DAT (Homo sapiens, UniProt Q01959); assay: Radioligand binding, dopamine transporter
T2 construct: purchased Eurofins

sodium channel site 2 = assay: Radioligand binding, sodium channel site 2
[2] = radioligand binding displacement, 10 μM

T2 sequence (Q01959 whole entry): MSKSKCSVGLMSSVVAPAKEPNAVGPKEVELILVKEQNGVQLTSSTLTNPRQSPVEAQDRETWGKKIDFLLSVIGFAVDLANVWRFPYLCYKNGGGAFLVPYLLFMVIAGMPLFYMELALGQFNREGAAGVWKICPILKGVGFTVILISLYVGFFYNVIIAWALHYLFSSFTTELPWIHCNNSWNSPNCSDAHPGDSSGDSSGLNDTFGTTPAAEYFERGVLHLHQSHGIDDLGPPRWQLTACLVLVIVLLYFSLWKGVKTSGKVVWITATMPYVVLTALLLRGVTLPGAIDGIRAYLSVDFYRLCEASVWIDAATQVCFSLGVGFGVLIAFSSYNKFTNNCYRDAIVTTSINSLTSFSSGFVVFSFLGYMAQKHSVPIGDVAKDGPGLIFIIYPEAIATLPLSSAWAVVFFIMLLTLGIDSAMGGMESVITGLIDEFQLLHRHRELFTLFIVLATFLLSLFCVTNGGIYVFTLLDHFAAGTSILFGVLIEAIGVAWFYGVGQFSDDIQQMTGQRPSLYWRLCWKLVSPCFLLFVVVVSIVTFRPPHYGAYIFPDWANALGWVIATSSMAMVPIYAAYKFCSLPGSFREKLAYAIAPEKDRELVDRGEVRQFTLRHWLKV
T1 sequence (P57789 whole entry): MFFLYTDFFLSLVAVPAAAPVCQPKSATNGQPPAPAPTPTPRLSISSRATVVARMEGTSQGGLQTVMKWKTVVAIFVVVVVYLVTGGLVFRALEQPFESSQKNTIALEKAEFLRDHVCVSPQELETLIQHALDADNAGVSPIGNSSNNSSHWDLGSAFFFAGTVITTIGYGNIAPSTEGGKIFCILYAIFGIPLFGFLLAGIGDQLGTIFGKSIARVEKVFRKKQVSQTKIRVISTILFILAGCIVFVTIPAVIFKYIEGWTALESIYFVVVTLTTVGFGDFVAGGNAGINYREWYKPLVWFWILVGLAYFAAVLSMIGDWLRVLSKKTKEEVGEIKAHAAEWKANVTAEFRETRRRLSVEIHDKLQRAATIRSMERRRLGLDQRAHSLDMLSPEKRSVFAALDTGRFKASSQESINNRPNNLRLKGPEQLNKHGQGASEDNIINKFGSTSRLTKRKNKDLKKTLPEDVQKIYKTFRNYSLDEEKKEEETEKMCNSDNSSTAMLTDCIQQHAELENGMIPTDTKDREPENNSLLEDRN
Chain of TASK-3 (Q9NPC2 whole entry, species assumed): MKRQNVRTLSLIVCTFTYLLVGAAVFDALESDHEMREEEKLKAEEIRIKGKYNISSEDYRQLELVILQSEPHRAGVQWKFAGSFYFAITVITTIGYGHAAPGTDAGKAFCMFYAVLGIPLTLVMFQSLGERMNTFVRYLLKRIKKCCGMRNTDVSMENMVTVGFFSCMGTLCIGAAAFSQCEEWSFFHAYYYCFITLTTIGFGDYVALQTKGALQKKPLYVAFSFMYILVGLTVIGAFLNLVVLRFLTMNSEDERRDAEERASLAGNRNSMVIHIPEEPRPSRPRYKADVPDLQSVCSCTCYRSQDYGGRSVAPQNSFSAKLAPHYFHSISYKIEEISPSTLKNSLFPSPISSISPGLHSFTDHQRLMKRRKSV
Chain of DAT (Q01959 whole entry, species assumed): as the sequence (Q01959 whole entry) above
Chain of TASK-1 (O14649 whole entry, species assumed): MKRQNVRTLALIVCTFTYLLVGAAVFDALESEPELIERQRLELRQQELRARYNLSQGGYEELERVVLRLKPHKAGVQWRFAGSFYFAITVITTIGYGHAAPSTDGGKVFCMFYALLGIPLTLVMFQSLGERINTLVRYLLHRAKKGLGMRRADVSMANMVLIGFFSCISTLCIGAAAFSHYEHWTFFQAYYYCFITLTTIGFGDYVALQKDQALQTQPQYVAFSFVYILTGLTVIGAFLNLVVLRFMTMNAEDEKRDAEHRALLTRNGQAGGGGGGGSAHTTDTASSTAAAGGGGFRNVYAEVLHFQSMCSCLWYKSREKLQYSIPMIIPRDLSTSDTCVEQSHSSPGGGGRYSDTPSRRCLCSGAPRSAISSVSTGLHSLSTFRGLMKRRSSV
Chain of THIK-1 (Q9HB14 whole entry, species assumed): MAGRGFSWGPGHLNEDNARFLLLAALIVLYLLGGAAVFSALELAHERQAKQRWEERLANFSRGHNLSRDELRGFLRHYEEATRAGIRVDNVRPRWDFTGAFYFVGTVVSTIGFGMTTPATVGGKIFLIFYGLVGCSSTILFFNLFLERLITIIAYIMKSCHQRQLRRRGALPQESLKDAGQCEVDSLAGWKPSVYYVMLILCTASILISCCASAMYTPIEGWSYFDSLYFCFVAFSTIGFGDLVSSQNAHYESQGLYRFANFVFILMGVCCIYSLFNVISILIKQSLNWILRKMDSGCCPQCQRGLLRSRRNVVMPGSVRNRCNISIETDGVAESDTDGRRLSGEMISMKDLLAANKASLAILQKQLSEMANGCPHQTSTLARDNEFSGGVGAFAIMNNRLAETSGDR
Chain of TASK-2 (O95279 whole entry, species assumed): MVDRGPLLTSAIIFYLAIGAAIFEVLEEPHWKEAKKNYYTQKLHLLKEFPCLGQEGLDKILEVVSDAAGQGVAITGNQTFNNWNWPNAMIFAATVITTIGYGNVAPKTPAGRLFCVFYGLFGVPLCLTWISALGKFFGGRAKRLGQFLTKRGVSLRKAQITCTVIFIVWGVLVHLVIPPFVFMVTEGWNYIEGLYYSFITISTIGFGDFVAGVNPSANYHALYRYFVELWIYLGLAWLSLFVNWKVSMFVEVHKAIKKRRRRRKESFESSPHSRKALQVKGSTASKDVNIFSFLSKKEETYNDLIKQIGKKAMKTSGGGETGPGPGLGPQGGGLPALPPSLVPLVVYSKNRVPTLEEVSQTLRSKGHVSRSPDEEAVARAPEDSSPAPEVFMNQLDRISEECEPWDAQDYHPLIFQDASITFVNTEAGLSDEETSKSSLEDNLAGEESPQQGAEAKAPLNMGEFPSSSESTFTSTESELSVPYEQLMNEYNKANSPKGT
Chain of TRAAK (Q9NYG8 whole entry, species assumed): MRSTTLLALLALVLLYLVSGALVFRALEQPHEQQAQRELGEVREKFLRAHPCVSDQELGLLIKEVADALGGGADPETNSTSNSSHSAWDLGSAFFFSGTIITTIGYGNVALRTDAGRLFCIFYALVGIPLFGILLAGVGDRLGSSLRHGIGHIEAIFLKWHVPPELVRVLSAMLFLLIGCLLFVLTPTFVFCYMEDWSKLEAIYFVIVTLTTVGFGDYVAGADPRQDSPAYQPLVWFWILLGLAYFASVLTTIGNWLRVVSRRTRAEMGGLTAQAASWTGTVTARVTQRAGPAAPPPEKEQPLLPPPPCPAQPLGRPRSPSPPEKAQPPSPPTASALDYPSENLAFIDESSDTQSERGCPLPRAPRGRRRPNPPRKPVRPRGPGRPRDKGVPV
Chain of TRESK (Q7Z418 whole entry, species assumed): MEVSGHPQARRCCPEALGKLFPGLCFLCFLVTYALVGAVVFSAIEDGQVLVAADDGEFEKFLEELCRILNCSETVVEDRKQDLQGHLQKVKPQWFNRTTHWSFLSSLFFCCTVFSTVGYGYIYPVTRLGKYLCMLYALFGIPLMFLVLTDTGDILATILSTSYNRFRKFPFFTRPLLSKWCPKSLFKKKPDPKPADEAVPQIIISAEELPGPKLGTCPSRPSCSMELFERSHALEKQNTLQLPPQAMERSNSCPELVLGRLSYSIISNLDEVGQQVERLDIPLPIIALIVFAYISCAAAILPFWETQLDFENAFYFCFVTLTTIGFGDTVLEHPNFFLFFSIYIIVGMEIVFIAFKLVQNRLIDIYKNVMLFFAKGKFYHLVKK

SMILES | THIK-1 inhibition (THIK-1) | Cmax [1] | IC50 (DAT) | TASK-1 inhibition (TASK-1) | inhibition at 10 µM (TRAAK) | TASK-2 inhibition (TASK-2) | IC50 (human TREK-2) | inhibition at 10 µM (TASK-3) | TRESK inhibition (TRESK) | IC50 (dopamine transporter DAT; follow-up binding) | inhibition at 10 µM (dopamine transporter DAT; [2]) | IC50 (sodium channel site 2; follow-up binding) | sodium channel site 2 inhibition at 10 μM (sodium channel site 2; [2])
CC(=O)N1CCC(n2ncc(Cl)c2C(=O)Nc2ncc(C#Cc3ccccc3)cc2C)CC1 [Compound 10, 1-(1-Acetylpiperidin-4-yl)-4-chloro-N-(3-methyl-5-(phenylethynyl)pyridin-2-yl)-1H-pyrazole-5-carboxamide] | nothing significant | 218 nM | 1.21 µM | nothing significant | 84% | nothing significant | 0.081 µM | 78% | nothing significant | 2.86 µM | 78% |  | 
CC(=O)N1CC[C@@H](n2ncc(Cl)c2C(=O)Nc2ncc(C#Cc3ccc(F)cc3)cc2C)[C@H](F)C1 [Compound 11, 1-((3R,4R)-1-Acetyl-3-fluoropiperidin-4-yl)-4-chloro-N-(5-((4-fluorophenyl)ethynyl)-3-methylpyridin-2-yl)-1H-pyrazole-5-carboxamide] |  | 58 nM |  |  |  |  | 0.11 µM |  |  |  |  | 9.13 µM | 56%
